One may read the IC50 as the point on the concentration scale where inhibition reaches its midpoint.

One experiment has as its target T1, JH2 domain of human Tyk2 (Homo sapiens, UniProt P29597).
T1 construct: 10×His-tagged TYK2 JH2 domain (amino acid 575-876)
In words: JH2 biochemical assay (TR-FRET probe displacement). Type of experiment: binding. The following applies: JH2 biochemical assay. In short, it runs like this: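 A probe-displacement TR-FRET readout: compounds, tested in 3-fold, 10-point dilutions starting at […], compete with 2 nM tracer for 2 nM His-tagged JH2 (residues 575-876) detected by 0.1 nM Tb-anti-His over 60 min. IC50 comes from 4-parameter fits of normalized 520/495 nm ratios.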

Experiment [1] deals with Tyk2 kinase activity on STAT4. In words: pSTAT4 cell assay (MSD, NK92 cells). Type of experiment: cell-based. The following applies: compounds 1 hr, stimulated 15 minutes. Summed up: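 Cells natively expressing STAT4 and Tyk2 (NK92) are serum-starved to lower background phosphorylation, exposed to compound for 1 hr over a 10-point four-fold series starting at 10 μM, and stimulated with 30 ng/mL IL2 for 15 minutes. Phosphorylation is quantified on MSD with anti-STAT4 antibodies.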

Counter-ions that a name gives are not always drawn. A value given as a limit tells only on which side of the number the result lay.

T1 sequence (P29597 575-876): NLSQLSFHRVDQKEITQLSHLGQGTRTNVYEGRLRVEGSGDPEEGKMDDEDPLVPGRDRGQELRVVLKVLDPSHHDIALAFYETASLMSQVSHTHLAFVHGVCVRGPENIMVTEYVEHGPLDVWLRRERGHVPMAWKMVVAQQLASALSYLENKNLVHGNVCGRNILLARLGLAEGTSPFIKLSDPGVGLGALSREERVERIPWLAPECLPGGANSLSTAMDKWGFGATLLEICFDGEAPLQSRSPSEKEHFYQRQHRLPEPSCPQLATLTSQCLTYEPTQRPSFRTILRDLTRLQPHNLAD

For `CC(=O)Nc1cc2c(cn1)C1(CC1)CN2c1cc(C)nc(N2CC(C(F)F)C2)n1` [Example 222, N-(1′-(2-(3-(difluoromethyl)azetidin-1-yl)-6-methylpyrimidin-4-yl)-1′,2′-dihydrospiro[cyclopropane-1,3′-pyrrolo[3,2-c]pyridin]-6′-yl)acetamide], the 50% inhibitory concentration (IC50) was 10 to 100 nM on JH2 domain of human Tyk2 and at least 1000 nM in experiment [1].
For `CC(=O)Nc1cc2c(cn1)C1(CC1)CN2c1cc(C)nc(N2CC(C#N)(C(F)F)C2)n1` [Example 223, N-(1′-(2-(3-cyano-3-(difluoromethyl)azetidin-1-yl)-6-methylpyrimidin-4-yl)-1′,2′-dihydrospiro[cyclopropane-1,3′-pyrrolo[3,2-c]pyridin]-6′-yl)acetamide trifluoroacetate], in that order: 10 to 100 nM and at least 1000 nM.
Consider `CC(=O)Nc1cc2c(cn1)C1(CC1)CN2c1cc(C)nc(N2CC(S(C)(=O)=O)C2)n1` [Example 224, N-(1′-(6-methyl-2-(3-(methylsulfonyl)azetidin-1-yl)pyrimidin-4-yl)-1′,2′-dihydrospiro[cyclopropane-1,3′-pyrrolo[3,2-c]pyridin]-6′-yl)acetamide], for which the concentration for half-maximal inhibition (IC50) at JH2 domain of human Tyk2 was 100 to 1000 nM; in experiment [1], at least 1000 nM.
As to `CCS(=O)(=O)C1CN(c2nc(C)cc(N3CC4(CC4)c4cnc(NC(C)=O)cc43)n2)C1` [Example 225, N-(1′-(2-(3-(ethylsulfonyl)azetidin-1-yl)-6-methylpyrimidin-4-yl)-1′,2′-dihydrospiro[cyclopropane-1,3′-pyrrolo[3,2-c]pyridin]-6′-yl)acetamide], the 50% inhibitory concentration (IC50) is 100 to 1000 nM on JH2 domain of human Tyk2 and at least 1000 nM in experiment [1].
Take `CC(=O)Nc1cc2c(cn1)C1(CC1)CN2c1cc(C)nc(N2CC(C)(O)C2)n1` [Example 226, N-(1′-(2-(3-hydroxy-3-methylazetidin-1-yl)-6-methylpyrimidin-4-yl)-1′,2′-dihydrospiro[cyclopropane-1,3′-pyrrolo[3,2-c]pyridin]-6′-yl)acetamide]: the half-inhibitory concentration (IC50) at JH2 domain of human Tyk2 was 10 to 100 nM; in experiment [1], at least 1000 nM.
For `CC(=O)Nc1cc2c(cn1)C1(CC1)CN2c1cc(C)nc(N2CCN(C)CC2)n1` [Example 227, N-(1′-(6-methyl-2-(4-methylpiperazin-1-yl)pyrimidin-4-yl)-1′,2′-dihydrospiro[cyclopropane-1,3′-pyrrolo[3,2-c]pyridin]-6′-yl)acetamide], the IC50 is 100 to 1000 nM at JH2 domain of human Tyk2 and at least 1000 nM in experiment [1].
For `CC(=O)Nc1cc2c(cn1)C1(CC1)CN2c1cc(C)nc(N2CCC3(CC2)COC3)n1` [Example 228, N-(1′-(6-methyl-2-(2-oxa-7-azaspiro[3.5]nonan-7-yl)pyrimidin-4-yl)-1′,2′-dihydrospiro[cyclopropane-1,3′-pyrrolo[3,2-c]pyridin]-6′-yl)acetamide trifluoroacetate] the same measures were 100 to 1000 nM and at least 1000 nM.
For the compound `CC(=O)Nc1cc2c(cn1)C1(CC1)CN2c1cc(C)nc(N2CCC(F)(F)C2)n1` [Example 229, N-(1′-(2-(3,3-difluoropyrrolidin-1-yl)-6-methylpyrimidin-4-yl)-1′,2′-dihydrospiro[cyclopropane-1,3′-pyrrolo[3,2-c]pyridin]-6′-yl)acetamide], the half-maximal inhibitory concentration (IC50) at JH2 domain of human Tyk2 is at most 10 nM; in experiment [1], 100 to 1000 nM.
`COC1(C(=O)C2CC2)CCN(c2nc(C)cc(N3CC4(CC4)c4cnc(NC(C)=O)cc43)n2)CC1` [Example 231, N-(1′-(2-(4-(cyclopropanecarbonyl)-4-methoxypiperidin-1-yl)-6-methylpyrimidin-4-yl)-1′,2′-dihydrospiro[cyclopropane-1,3′-pyrrolo[3,2-c]pyridin]-6′-yl)acetamide trifluoroacetate]: the IC50 at JH2 domain of human Tyk2 is 100 to 1000 nM; in experiment [1], at least 1000 nM.
For `CC(=O)Nc1cc2c(cn1)C1(CC1)CN2c1cc(C)nc(N2CCC(O)CC2)n1` [Example 232, N-(1′-(2-(4-hydroxypiperidin-1-yl)-6-methylpyrimidin-4-yl)-1′,2′-dihydrospiro[cyclopropane-1,3′-pyrrolo[3,2-c]pyridin]-6′-yl)acetamide], in that order: 100 to 1000 nM and at least 1000 nM.

For the origin of these results see patent publication US20260258032A1, “TYROSINE KINASE 2 INHIBITORS AND USES THEREOF” (BIOGEN MA INC., priority 2022, published 2026).
